From PubChem BioAssay (NCI)
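The compound was tested at five concentrations on cells cultured in 96-well plates, with a 48-hour exposure period. TGI marks complete inhibition of growth.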

Columns and labels:
Experiment in all cases: NCI tumour cell line growth inhibition, 48 h
[1] = system: 786-0 renal
[2] = system: A498 renal
[3] = system: A549 NSCLC
[4] = system: ACHN renal
[5] = system: BT-549 breast
[6] = system: CAKI-1 renal
[7] = system: CCRF-CEM leukemia
[8] = system: COLO 205 colon
[9] = system: DU-145 prostate
[10] = system: EKVX NSCLC
[11] = system: HCC-2998 colon
[12] = system: HCT-116 colon
[13] = system: HCT-15 colon
[14] = system: HOP-62 NSCLC
[15] = system: HOP-92 NSCLC
[16] = system: HS 578T breast
[17] = system: HT29 colon
[18] = system: IGROV1 ovarian
[19] = system: K-562 leukemia
[20] = system: KM12 colon
[21] = system: LOX IMVI melanoma
[22] = system: M14 melanoma
[23] = system: MALME-3M melanoma
[24] = system: MCF7 breast
[25] = system: MDA-MB-231 breast
[26] = system: MDA-MB-435
[27] = system: MDA-N
[28] = system: MOLT-4 leukemia
[29] = system: NCI-H23 lung
[30] = system: NCI-H460 lung
[31] = system: NCI-H522 lung
[32] = system: NCI/ADR-RES ovarian
[33] = system: OVCAR-3 ovarian
[34] = system: OVCAR-4 ovarian
[35] = system: OVCAR-5 ovarian
[36] = system: OVCAR-8 ovarian
[37] = system: PC-3 prostate
[38] = system: RPMI-8226 leukemia
[39] = system: SF-268 CNS
[40] = system: SF-295 CNS
[41] = system: SF-539 CNS
[42] = system: SK-MEL-28 melanoma
[43] = system: SK-MEL-5 melanoma
[44] = system: SK-OV-3 ovarian
[45] = system: SN12C renal
[46] = system: SNB-19 CNS
[47] = system: SNB-75 CNS
[48] = system: SR leukemia
[49] = system: SW-620 colon
[50] = system: T-47D breast
[51] = system: TK-10 renal
[52] = system: U251 CNS
[53] = system: UACC-257 melanoma
[54] = system: UACC-62 melanoma
[55] = system: UO-31 renal
[56] = system: SK-MEL-2 melanoma
[57] = system: NCI-H226 lung

## OC(Cc1ccc2ccccc2n1)(C(F)(F)F)C(F)(F)F
[1]
  TGI: > 10 µM
[2]
  TGI: > 10 µM
[3]
  TGI: > 10 µM
[4]
  TGI: > 10 µM
[5]
  TGI: > 10 µM
[6]
  TGI: > 10 µM
[7]
  TGI: > 10 µM
[8]
  TGI: > 10 µM
[9]
  TGI: > 10 µM
[10]
  TGI: > 10 µM
[11]
  TGI: > 10 µM
[12]
  TGI: > 10 µM
[13]
  TGI: > 10 µM
[14]
  TGI: > 10 µM
[15]
  TGI: > 10 µM
[16]
  TGI: > 10 µM
[17]
  TGI: > 10 µM
[18]
  TGI: > 10 µM
[19]
  TGI: > 10 µM
[20]
  TGI: > 10 µM
[21]
  TGI: > 10 µM
[22]
  TGI: > 10 µM
[23]
  TGI: > 10 µM
[24]
  TGI: > 10 µM
[25]
  TGI: > 10 µM
[26]
  TGI: > 10 µM
[27]
  TGI: > 10 µM
[28]
  TGI: > 10 µM
[29]
  TGI: > 10 µM
[30]
  TGI: > 10 µM
[31]
  TGI: > 10 µM
[32]
  TGI: > 10 µM
[33]
  TGI: > 10 µM
[34]
  TGI: > 10 µM
[35]
  TGI: > 10 µM
[36]
  TGI: > 10 µM
[37]
  TGI: > 10 µM
[38]
  TGI: > 10 µM
[39]
  TGI: > 10 µM
[40]
  TGI: > 10 µM
[41]
  TGI: > 10 µM
[42]
  TGI: > 10 µM
[43]
  TGI: > 10 µM
[44]
  TGI: > 10 µM
[45]
  TGI: > 10 µM
[46]
  TGI: > 10 µM
[47]
  TGI: > 10 µM
[48]
  TGI: > 10 µM
[49]
  TGI: > 10 µM
[50]
  TGI: > 10 µM
[51]
  TGI: > 10 µM
[52]
  TGI: > 10 µM
[53]
  TGI: > 10 µM
[54]
  TGI: > 10 µM
[55]
  TGI: > 10 µM

## O=C(Nc1ccc(Cl)cc1)/C(=C(/[O-])c1ccc(Br)cc1)[n+]1cccc(-c2ccc(Cl)cc2)n1
[1]
  TGI: 14.3 µM
[2]
  TGI: > 100 µM
[3]
  TGI: > 100 µM
[4]
  TGI: 46.1 µM
[5]
  TGI: 9.35 µM
[6]
  TGI: 6.66 µM
[8]
  TGI: > 100 µM
[9]
  TGI: > 100 µM
[10]
  TGI: 19.3 µM
[11]
  TGI: 24 µM
[12]
  TGI: 13 µM
[13]
  TGI: 51.7 µM
[14]
  TGI: 29.2 µM
[15]
  TGI: > 100 µM
[16]
  TGI: 9.65 µM
[18]
  TGI: 14.8 µM
[19]
  TGI: > 100 µM
[20]
  TGI: 9.86 µM
[21]
  TGI: > 100 µM
[22]
  TGI: 18.5 µM
[23]
  TGI: 11.3 µM
[24]
  TGI: 3.28 µM
[25]
  TGI: > 100 µM
[26]
  TGI: 25 µM
[27]
  TGI: > 100 µM
[28]
  TGI: > 100 µM
[29]
  TGI: 9.04 µM
[30]
  TGI: 16.5 µM
[31]
  TGI: 6.83 µM
[32]
  TGI: 31.6 µM
[33]
  TGI: 12.9 µM
[34]
  TGI: 29.4 µM
[35]
  TGI: 21.7 µM
[36]
  TGI: 14.2 µM
[37]
  TGI: > 100 µM
[38]
  TGI: > 100 µM
[39]
  TGI: 19.5 µM
[40]
  TGI: 11.2 µM
[56]
  TGI: 12.3 µM
[42]
  TGI: 71.1 µM
[43]
  TGI: > 100 µM
[44]
  TGI: 33.7 µM
[45]
  TGI: 8.44 µM
[46]
  TGI: > 100 µM
[47]
  TGI: 26.1 µM
[48]
  TGI: > 100 µM
[49]
  TGI: > 100 µM
[50]
  TGI: 5.14 µM
[51]
  TGI: 67.8 µM
[52]
  TGI: > 100 µM
[53]
  TGI: > 100 µM
[54]
  TGI: 22.8 µM
[55]
  TGI: 42.6 µM

## COc1ccc(-n2cnc3c(NCC(=O)O)ncnc32)cc1
[1]
  TGI: > 100 µM
[2]
  TGI: > 100 µM
[3]
  TGI: > 100 µM
[4]
  TGI: > 100 µM
[5]
  TGI: > 100 µM
[6]
  TGI: > 100 µM
[7]
  TGI: > 100 µM
[8]
  TGI: > 100 µM
[9]
  TGI: > 100 µM
[10]
  TGI: > 100 µM
[11]
  TGI: > 100 µM
[12]
  TGI: > 100 µM
[13]
  TGI: > 100 µM
[14]
  TGI: > 100 µM
[15]
  TGI: > 100 µM
[16]
  TGI: > 100 µM
[17]
  TGI: > 100 µM
[18]
  TGI: > 100 µM
[19]
  TGI: > 100 µM
[20]
  TGI: > 100 µM
[21]
  TGI: > 100 µM
[22]
  TGI: > 100 µM
[23]
  TGI: > 100 µM
[24]
  TGI: > 100 µM
[25]
  TGI: > 100 µM
[26]
  TGI: > 100 µM
[27]
  TGI: > 100 µM
[28]
  TGI: > 100 µM
[57]
  TGI: > 100 µM
[29]
  TGI: > 100 µM
[30]
  TGI: > 100 µM
[31]
  TGI: > 100 µM
[32]
  TGI: > 100 µM
[33]
  TGI: > 100 µM
[34]
  TGI: > 100 µM
[35]
  TGI: > 100 µM
[36]
  TGI: > 100 µM
[37]
  TGI: > 100 µM
[38]
  TGI: > 100 µM
[39]
  TGI: > 100 µM
[40]
  TGI: > 100 µM
[56]
  TGI: > 100 µM
[42]
  TGI: > 100 µM
[43]
  TGI: > 100 µM
[44]
  TGI: > 100 µM
[45]
  TGI: > 100 µM
[46]
  TGI: > 100 µM
[47]
  TGI: > 100 µM
[48]
  TGI: > 100 µM
[49]
  TGI: > 100 µM
[50]
  TGI: > 100 µM
[51]
  TGI: > 100 µM
[52]
  TGI: > 100 µM
[53]
  TGI: > 100 µM
[54]
  TGI: > 100 µM
[55]
  TGI: > 100 µM
